{"source": "patent US20070092942A1", "about": "“Ubiquitin specific enzymes of family herpesviridae” (priority 2005, published 2007)", "settings_in_all_cases": "FIGS. 6-7", "key": {"Cezanne": {"target": "T1, Cezanne (Homo sapiens, UniProt Q6GQQ9)", "T1 sequence (Q6GQQ9 1-843)": "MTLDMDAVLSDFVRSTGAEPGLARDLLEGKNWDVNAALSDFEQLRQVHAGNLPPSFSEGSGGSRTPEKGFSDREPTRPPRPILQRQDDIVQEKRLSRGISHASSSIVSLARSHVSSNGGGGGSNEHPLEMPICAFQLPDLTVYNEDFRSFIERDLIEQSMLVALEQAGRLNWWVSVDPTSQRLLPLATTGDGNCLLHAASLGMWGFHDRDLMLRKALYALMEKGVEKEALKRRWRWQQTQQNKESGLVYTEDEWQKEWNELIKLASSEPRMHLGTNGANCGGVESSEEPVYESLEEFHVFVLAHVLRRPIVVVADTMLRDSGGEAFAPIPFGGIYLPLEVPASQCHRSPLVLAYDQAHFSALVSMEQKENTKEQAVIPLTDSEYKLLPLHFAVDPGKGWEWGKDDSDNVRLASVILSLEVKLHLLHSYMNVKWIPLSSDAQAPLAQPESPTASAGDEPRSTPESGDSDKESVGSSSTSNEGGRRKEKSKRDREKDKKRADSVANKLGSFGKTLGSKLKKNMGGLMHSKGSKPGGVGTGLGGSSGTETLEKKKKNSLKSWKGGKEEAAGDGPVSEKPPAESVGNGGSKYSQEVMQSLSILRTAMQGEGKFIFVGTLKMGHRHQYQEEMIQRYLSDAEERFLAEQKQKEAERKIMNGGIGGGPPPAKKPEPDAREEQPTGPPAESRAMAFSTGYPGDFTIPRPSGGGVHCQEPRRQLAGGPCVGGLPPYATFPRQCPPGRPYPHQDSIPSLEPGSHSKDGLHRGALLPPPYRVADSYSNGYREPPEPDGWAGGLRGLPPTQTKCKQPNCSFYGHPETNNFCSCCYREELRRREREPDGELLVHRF", "test": "Western blot inhibitor screen, HA tagged Ub-VME probe, other enzymes", "format": "binding"}, "UCH-1": {"target": "T2, UCH-1 (Homo sapiens, UniProt P09936)", "T2 sequence (P09936 1-223)": "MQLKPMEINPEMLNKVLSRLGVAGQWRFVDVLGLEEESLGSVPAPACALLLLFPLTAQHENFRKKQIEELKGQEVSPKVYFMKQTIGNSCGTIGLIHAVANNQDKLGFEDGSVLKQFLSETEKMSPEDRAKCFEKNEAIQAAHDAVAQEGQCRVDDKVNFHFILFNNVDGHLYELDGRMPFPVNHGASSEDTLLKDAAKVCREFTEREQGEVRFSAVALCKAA", "test": "Western blot inhibitor screen, HA tagged Ub-VME probe, other enzymes", "format": "binding"}, "UL36": {"system": "UL36", "test": "Western blot screen for inhibitors: anti-HA blot of UL36 bound to HA tagged Ub-VME probe", "format": "binding, HSV-1", "from_the_text": "FIGS. 6-7 is a series photographs showing the results of a screen for inhibitors of the Herpes deubiquitinating enzyme. The photographs show the results of Western blot assays: anti-HA blots for detecting UL36 bound to the HA tagged Ub-VME probe."}, "Ataxin-3": {"target": "Ataxin-3 (Homo sapiens, UniProt P54252)", "sequence (P54252 whole entry, species assumed)": "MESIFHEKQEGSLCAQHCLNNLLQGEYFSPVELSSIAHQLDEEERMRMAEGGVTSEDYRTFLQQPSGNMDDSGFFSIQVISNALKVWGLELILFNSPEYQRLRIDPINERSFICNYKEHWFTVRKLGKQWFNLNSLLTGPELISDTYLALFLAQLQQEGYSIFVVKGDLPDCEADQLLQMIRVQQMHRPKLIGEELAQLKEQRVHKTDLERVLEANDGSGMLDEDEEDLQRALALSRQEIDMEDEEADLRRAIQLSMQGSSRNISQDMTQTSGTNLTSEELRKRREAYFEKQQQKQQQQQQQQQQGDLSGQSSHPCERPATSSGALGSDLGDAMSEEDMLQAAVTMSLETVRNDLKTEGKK", "test": "Western blot inhibitor screen, HA tagged Ub-VME probe, other enzymes", "format": "binding"}, "CYLD": {"target": "T3, CYLD (Homo sapiens, UniProt Q9NQC7)", "T3 sequence (Q9NQC7 1-956)": "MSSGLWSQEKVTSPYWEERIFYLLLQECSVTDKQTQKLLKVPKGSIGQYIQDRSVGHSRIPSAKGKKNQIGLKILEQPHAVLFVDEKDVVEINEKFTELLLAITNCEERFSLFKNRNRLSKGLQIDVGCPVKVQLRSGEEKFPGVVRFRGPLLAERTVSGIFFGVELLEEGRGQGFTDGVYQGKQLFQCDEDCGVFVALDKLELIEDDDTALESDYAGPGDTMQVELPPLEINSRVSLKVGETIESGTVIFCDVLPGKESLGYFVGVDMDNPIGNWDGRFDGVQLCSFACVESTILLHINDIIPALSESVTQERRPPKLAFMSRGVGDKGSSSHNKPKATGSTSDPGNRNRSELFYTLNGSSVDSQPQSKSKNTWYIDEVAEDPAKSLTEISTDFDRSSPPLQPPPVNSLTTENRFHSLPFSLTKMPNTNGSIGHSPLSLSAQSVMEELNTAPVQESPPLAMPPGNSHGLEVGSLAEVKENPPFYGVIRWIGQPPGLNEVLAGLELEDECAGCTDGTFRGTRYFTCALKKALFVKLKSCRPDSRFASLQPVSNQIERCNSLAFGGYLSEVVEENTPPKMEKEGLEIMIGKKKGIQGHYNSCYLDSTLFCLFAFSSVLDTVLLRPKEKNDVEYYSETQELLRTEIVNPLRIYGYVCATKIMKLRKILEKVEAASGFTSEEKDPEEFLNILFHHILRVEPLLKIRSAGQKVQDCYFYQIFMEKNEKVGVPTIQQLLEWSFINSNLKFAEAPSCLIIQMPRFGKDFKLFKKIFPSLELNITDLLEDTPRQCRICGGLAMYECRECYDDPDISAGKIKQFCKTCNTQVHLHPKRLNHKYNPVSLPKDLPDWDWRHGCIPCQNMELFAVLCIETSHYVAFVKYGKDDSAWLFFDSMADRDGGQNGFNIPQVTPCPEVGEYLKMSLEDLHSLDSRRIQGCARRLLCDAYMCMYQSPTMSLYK", "test": "Western blot inhibitor screen, HA tagged Ub-VME probe, other enzymes", "format": "binding"}, "UCH-3": {"target": "T4, UCH-3 (Homo sapiens, UniProt P15374)", "T4 sequence (P15374 1-230)": "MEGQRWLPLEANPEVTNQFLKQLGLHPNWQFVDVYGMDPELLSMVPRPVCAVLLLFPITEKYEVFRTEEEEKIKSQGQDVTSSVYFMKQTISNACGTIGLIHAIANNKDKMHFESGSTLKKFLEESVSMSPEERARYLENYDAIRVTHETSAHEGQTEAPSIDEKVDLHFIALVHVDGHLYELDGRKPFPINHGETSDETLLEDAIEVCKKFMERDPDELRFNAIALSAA", "test": "Western blot inhibitor screen, HA tagged Ub-VME probe, other enzymes", "format": "binding"}, "USP7": {"target": "USP7 (Homo sapiens, UniProt Q93009)", "sequence (Q93009 whole entry, species assumed)": "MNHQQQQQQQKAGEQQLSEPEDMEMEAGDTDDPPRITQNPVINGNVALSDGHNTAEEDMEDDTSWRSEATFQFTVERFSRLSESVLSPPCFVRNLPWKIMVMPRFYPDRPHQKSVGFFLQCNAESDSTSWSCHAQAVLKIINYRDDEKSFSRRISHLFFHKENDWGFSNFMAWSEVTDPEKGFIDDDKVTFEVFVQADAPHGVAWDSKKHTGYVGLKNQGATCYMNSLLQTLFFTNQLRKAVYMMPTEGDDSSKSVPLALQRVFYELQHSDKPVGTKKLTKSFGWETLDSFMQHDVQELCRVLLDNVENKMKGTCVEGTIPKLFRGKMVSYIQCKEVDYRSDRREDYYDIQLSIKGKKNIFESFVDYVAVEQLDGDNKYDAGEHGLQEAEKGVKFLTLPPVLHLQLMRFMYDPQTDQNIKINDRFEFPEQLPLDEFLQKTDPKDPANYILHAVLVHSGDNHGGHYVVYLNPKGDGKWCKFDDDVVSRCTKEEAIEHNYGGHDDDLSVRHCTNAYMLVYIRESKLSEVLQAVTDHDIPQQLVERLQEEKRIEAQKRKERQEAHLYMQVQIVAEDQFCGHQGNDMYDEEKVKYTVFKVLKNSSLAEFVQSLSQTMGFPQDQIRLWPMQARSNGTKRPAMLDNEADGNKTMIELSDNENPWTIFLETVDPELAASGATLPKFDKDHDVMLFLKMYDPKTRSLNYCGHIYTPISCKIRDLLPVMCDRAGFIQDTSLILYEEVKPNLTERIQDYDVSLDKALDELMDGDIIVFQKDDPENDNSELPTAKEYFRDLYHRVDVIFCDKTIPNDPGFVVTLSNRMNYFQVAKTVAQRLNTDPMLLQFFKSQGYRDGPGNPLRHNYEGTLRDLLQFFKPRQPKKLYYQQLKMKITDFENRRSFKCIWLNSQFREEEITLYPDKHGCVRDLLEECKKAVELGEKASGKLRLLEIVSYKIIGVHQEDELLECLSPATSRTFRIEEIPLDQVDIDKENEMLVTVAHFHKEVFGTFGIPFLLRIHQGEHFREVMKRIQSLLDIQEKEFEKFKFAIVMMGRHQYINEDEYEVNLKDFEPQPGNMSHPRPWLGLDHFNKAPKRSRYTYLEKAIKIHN", "test": "Western blot inhibitor screen, HA tagged Ub-VME probe, other enzymes", "format": "binding"}}, "note": "Peptide text beside a SMILES is read from it. * marks the point of attachment. Cbz = O=C(OCc1ccccc1)*; CH2F = FC*"}
{"smiles": "CC(C)[C@H](NC(=O)OCc1ccccc1)C(=O)N[C@@H](C)C(=O)N[C@@H](C)C(=O)CF", "note": "[Z-VA-L-A-fink] (Cbz-Val-Ala-Ala-CH2F)", "values": [{"measurement": "Inhibition of Cezanne", "setting": "Cezanne", "value": "did not inhibit"}, {"measurement": "Inhibition of UCH-1", "setting": "UCH-1", "value": "did not inhibit"}, {"measurement": "Inhibition of UL36 (HA band of UL36 bound to HA tagged Ub-VME probe decreases or disappears)", "setting": "UL36", "value": "specifically inhibited"}, {"measurement": "Inhibition of Ataxin-3", "setting": "Ataxin-3", "value": "did not inhibit"}, {"measurement": "Inhibition of CYLD", "setting": "CYLD", "value": "did not inhibit"}, {"measurement": "Inhibition of UCH-3", "setting": "UCH-3", "value": "did not inhibit"}, {"measurement": "Inhibition of USP7", "setting": "USP7", "value": "did not inhibit"}]}
